Reference: patent US7572454B2, “T helper cell epitopes” (priority 1999, dated 2009)
Marks after values point to notes of the source that are not given here. Ends that are not written are not given here.

Assays:
LHRH [1] = test: Trial in BALB/c mice: antibody response to LHRH by ELISA; assay type: in vivo; conditions: for antibody titres to LHRH: BALB/c mice
Description: The canine vaccines with CDV-F derived Th-epitopes and LHRH used in Example 3 were also used to immunise BALB/c mice to investigate if the Th-epitopes would be functional in a different animal species.
All vaccines were formulated as for Example 3 except that they were diluted further so that 100 μl doses contained 2.7 nmoles of peptide and 10 μg of Iscomatrix™ and thiomersol as preservative.
Mice were vaccinated with 100 μl of the vaccine at the base of tail. Vaccinations were given at 0 and 4 weeks and animals bled at intervals after each vaccination from the retro-orbital plexus. Effective T-cell help was determined by measuring the antibody response to LHRH by ELISA.

LHRH [2] = test: Trial K9-8: antibody response to LHRH by ELISA; assay type: in vivo, dog; conditions: for antibody responses to LHRH: Trial K9-8, T-cell-LHRH constructs named by their T-cell epitope
Description: A total of 35 dogs mixed sex were used in this trial. All had been previously vaccinated with a live CDV vaccine but had not been vaccinated against LHRH.
The T-Helper epitopes were linked to a truncated form of LHRH, containing amino acids 2 to 10 of the native 10 amino acid sequence, as shown below:
All vaccines were formulated as for Example 2, ie each 1 mL dose of vaccine contained 40nmoles of peptide, 150 μg Iscomatrix™, and thiomersal as preservative.
Where dogs were vaccinated with a pool of peptides, the concentration of each peptide was adjusted to give equal concentrations and a total amount of 40 nmoles of LHRH epitope per 1 mL dose.
All dogs were vaccinated with a 1 mL dose, delivered in the scruff of the neck. Vaccinations were given at 0 and 4 weeks and venous blood samples were obtained at intervals during the trial.
Effective T-cell help was determined by measuring the antibody response to LHRH by ELISA. Biological effectiveness of the peptide based vaccine was determined by measuring the levels of progesterone in female dogs and testosterone in male dogs.

[3] = tested on: PBMCs from dogs immunised with CDV; test: T-cell proliferation after in vitro stimulation of PBMC with peptide pools, tested with autologous APCs and single peptides; assay type: cell-based, dog
Description: An alternate strategy was used to increase the precursor frequency of specific T cells recognising the CDV peptides. Fresh PBMCs obtained from these hyperimmunised dogs were subjected to stimulation in vitro with pools of all 94 peptides for 30 minutes at 37° C. The cells were then washed to remove any excess peptides and cultured for 7 days. This population of T cells was then tested with autologous APCs with every single peptide as the antigen.
To confirm this observation, the same four dogs were bled again, five weeks after receiving the dose of killed virus. The PBMCs were stimulated in vitro with pools of either all 94 peptides or peptides 21-40 (because most of the activity was in this region) and after 7 days of culture the stimulated T cells were tested against individual peptides. Significant stimulatory indices were obtained with all peptides, confirming the above results. Four more dogs which received only one dose of 3 in 1 vaccine were tested using the in vitro stimulation method and all four dogs responded to the majority of peptides shown in Table 2.
Once again the same peptides and one additional peptide P32 were tested on cells from additional dogs.

[4] = tested on: PBMCs obtained from dogs immunised with peptide vaccines; test: In vitro T cell proliferation assay without enrichment, PBMCs of peptide-vaccinated dogs against Th-epitope and truncated versions; assay type: cell-based, dog; conditions: dogs of Example 2 immunised with the respective Th-epitope-LHRH; FIGS. 2-4
Description: The assay was carried out without the enrichment of PBMCs. PBMCs obtained from Ficoll gradient purification were directly tested against the respective Th-epitope and its truncated versions. […] Truncated versions of the respective Th-epitopes were also tested to more closely define the T-cell activity within the sequences. […] This implies that the T-cell activity is towards the N-terminus or middle of the 17-residue peptide.

LHRH [5] = test: Trial K9-5: antibody response to LHRH by ELISA; assay type: in vivo, dog
[6] = 2 weeks post second vaccination, Mouse 1
[7] = 2 weeks post second vaccination, Mouse 2
[8] = 2 weeks post second vaccination, Mouse 3
[9] = 2 weeks post second vaccination, Mouse 4
[10] = 4 weeks post first vaccination, Mouse 1, 2.7 nmoles peptide, base of tail
[11] = 4 weeks post first vaccination, Mouse 2
[12] = 4 weeks post first vaccination, Mouse 3
[13] = 4 weeks post first vaccination, Mouse 4
[14] = Table 1, Beagle Foxhound (Dog #18), hyperimmunised, PBMC stimulated with pool of all 94 peptides, 7 days culture
[15] = Table 1, Beagle Foxhound (Dog #19)
[16] = Table 1, Beagle Foxhound (Dog #20)
[17] = Table 1, Beagle Foxhound (Dog #21)
[18] = Table 2, Beagle Foxhound (Dog #71), one dose of 3 in 1 vaccine
[19] = Table 3, Kelpie Foxhound (Dog #125)
[20] = Table 2, Beagle Foxhound (Dog #72), one dose of 3 in 1 vaccine
[21] = Table 2, Beagle Foxhound (Dog #73), one dose of 3 in 1 vaccine
[22] = Table 3, Kelpie Foxhound (Dog #126)

Substance | antibody responses to LHRH (LHRH [2]) | antibody titres to LHRH (LHRH [1]) | Stimulatory index [3, 14] | Stimulatory index [3, 15] | Stimulatory index [3, 16] | Stimulatory index [3, 17] | Stimulatory index [3, 18] | Stimulatory index [3, 19] | Stimulatory index ([3]; Table 5, Border Collie) | Stimulatory index ([3]; Table 5, Fox Terrier) | Stimulatory index ([3]; Table 5, Grey hound) | Stimulatory index ([3]; Table 5, Kelpie Pointer) | Stimulatory index ([3]; Table 5, Poodle Shitzu) | Stimulatory index ([3]; Table 5, Terrier Cross) | Stimulatory index [3, 20] | Stimulatory index [3, 21] | Stimulation indices to Th-epitope and its truncated versions [4] | other results
P8-LHRH: T-helper epitope P8 linked to truncated LHRH, amino acids 2 to 10 (SEQ ID NO: 29) (HWSYGLRPG; not fully specified (N-terminus); ends and bridges not checked; also: linked to T-helper epitope P8; listed as Homo sapiens) [Peptide P8-LHRH] | Low to undetectable antibody responses |  |  |  |  |  |  |  |  |  |  |  |  |  |  |  |  | Anti-LHRH antibody titre (LHRH [1]; [6]): <100; Anti-LHRH antibody titre (LHRH [1]; [7]): <100; Anti-LHRH antibody titre (LHRH [1]; [8]): <100; Anti-LHRH antibody titre (LHRH [1]; [9]): <100; Anti-LHRH antibody titre (LHRH [1]; [10]): <100; Anti-LHRH antibody titre (LHRH [1]; [11]): <100; Anti-LHRH antibody titre (LHRH [1]; [12]): <100; Anti-LHRH antibody titre (LHRH [1]; [13]): <100
PRYIATNGYLISNFDES (canine distemper virus; synthetic peptide from canine distemper virus fusion protein (CDV-F) designated peptide P62) | Strong antibody responses | undetectable levels | <2 | 51 | 5.6 | 4.2 | 3 | 2.4 | <2 | <2 | <2 | <2 | 24 | <2 |  |  |  | 
KLIPNASLIENCTKAEL (canine distemper virus; synthetic peptide from canine distemper virus fusion protein (CDV-F) designated peptide P25) | Strong antibody responses |  | 3.2 | 11.9 | 4.5 | 17 | 2.9 |  | <2 | 2.6 | <2 | 2.6 | <2 | <2 | 2 | 12 | the full sequence of 17 residues was better than the shorter peptides of 15 and 12 residues | Stimulatory index ([3]; Table 2, Beagle Foxhound (Dog #70), one dose of 3 in 1 vaccine): 1.5
AELGEYEKLLNSVLEPI (canine distemper virus; synthetic peptide from canine distemper virus fusion protein (CDV-F) designated peptide P27) | Strong antibody responses |  | 3.3 | 34 | 6.7 | 14.8 | 2.7 | 4.5 |  |  |  |  |  |  | 3.5 | 4.8 | the 17 residue long peptide was a better simulator than the 15-mer | Stimulatory index [3, 22]: 8.5
P35-LHRH: T-helper epitope P35 linked to truncated LHRH, amino acids 2 to 10 (SEQ ID NO: 29) (HWSYGLRPG; not fully specified (N-terminus); ends and bridges not checked; also: linked to T-helper epitope P35; listed as Homo sapiens) [Peptide P35-LHRH] |  |  |  |  |  |  |  |  |  |  |  |  |  |  |  |  |  | Anti-LHRH antibody titre (LHRH [1]; [6]): 1,412; Anti-LHRH antibody titre (LHRH [1]; [7]): 800; Anti-LHRH antibody titre (LHRH [1]; [8]): <100; Anti-LHRH antibody titre (LHRH [1]; [9]): <100; Anti-LHRH antibody titre (LHRH [1]; 2 weeks post second vaccination, Mouse 5): <100; Anti-LHRH antibody titre (LHRH [1]; [10]): <100; Anti-LHRH antibody titre (LHRH [1]; [11]): <100; Anti-LHRH antibody titre (LHRH [1]; [12]): <100; Anti-LHRH antibody titre (LHRH [1]; [13]): <100; Anti-LHRH antibody titre (LHRH [1]; 4 weeks post first vaccination, Mouse 5): <100; Anti LHRH Titres, 2 wks post boost, GMT (LHRH [2]; group GMT): 103085; Anti LHRH Titres, 4 wks after primary, GMT (LHRH [2]; group GMT): 2469; Anti LHRH Titres, 4 wks post boost, GMT (LHRH [2]; group GMT): 58002; antibody response to the B-cell epitope (LHRH) (LHRH [5]; Trial K9-5, text): strong antibody responses
TAAQITAGIALHQSNLN [Peptide P35] | Strong antibody responses | low antibody titres | 3.1 | 57 | 3.3 | 22 |  | 3.8 | 2 | 2.2 | <2 | 2 | <2 | <2 | 1.7 | 6.8 | the other three dogs responded as well to the 12 residue peptide as to the full length 17 residue one | Stimulatory index [3, 22]: 10
SSKTQTHTQQDRPPQPS (canine distemper virus; synthetic peptide from canine distemper virus fusion protein (CDV-F) designated peptide P2) | Low to undetectable antibody responses | undetectable levels | 2* | <2 | 8 | 3.9 |  |  | 2 | <2 | <2 | 2.6 | 140 | <2 |  |  |  | 
SPDKLLTFIASDTCPLV (canine distemper virus; synthetic peptide from canine distemper virus fusion protein (CDV-F) designated peptide P75) | Strong antibody responses | low antibody titres |  |  |  |  |  |  | <2 | <2 | <2 | <2 | 10 | <2 |  |  |  | Stimulatory index ([3]; Table 4, Beagle Foxhound #18): 2.5; Stimulatory index ([3]; Table 4, Beagle Foxhound #21): 7.2; Stimulatory index ([3]; Table 4, Poodle Shitzu): 10; reaction with peripheral blood mononuclear cells ([3]; dogs of various breeds immunised with CDV): react strongly
ALNNRFQIKGVELKS-(NANP)3 (ALNNRFQIKGVELKSNANPNANPNANP; synthetic control peptide) |  |  |  |  |  |  |  |  |  |  |  |  |  |  |  |  |  | Anti LHRH Titres, 2 wks post boost, Average (LHRH [5]; group average): 1978; Anti LHRH Titres, 6 wks post boost, Average (LHRH [5]; group average): 1941; Anti LHRH Titres, Prebleeds, Average (LHRH [5]; group average): 1794; Anti LHRH Titres, 2 wks post boost, Range (LHRH [5]; group range): 1975-1982; Anti LHRH Titres, 6 wks post boost, Range (LHRH [5]; group range): 1936-1947; Anti LHRH Titres, Prebleeds, Range (LHRH [5]; group range): 1258-2559
